We go through three compounds from patent US9914908B2, “Method of introducing a toxin or dye into mammalian pluripotent cells using rBC2LCN” (National Institute of Advanced Industrial Science and …, priority 2013, dated 2018).

Holding throughout (conditions): read-out: dissociation constant (Kd)
Assay [1] concerns the target T1, rBC2LCN (recombinant BC2LCN lectin, N-terminal domain of BC2L-C protein, Burkholderia cenocepacia), wild-type, SEQ ID NO: 1 (Burkholderia cenocepacia, UniProt B4EH86).
T1 sequence (B4EH86 1-156): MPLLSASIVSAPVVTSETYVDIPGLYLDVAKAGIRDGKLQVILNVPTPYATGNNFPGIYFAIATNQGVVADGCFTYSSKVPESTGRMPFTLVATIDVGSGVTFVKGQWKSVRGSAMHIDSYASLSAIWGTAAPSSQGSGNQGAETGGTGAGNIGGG
The assay can be described thus: Binding affinity of wild-type rBC2LCN to sugar chain ligands by frontal affinity chromatography. The text has this:
(§1) The binding affinities of rBC2LCN-ETA and wild-type rBC2LCN to “Fucα1-2Galβ1-3GlcNAc (H type 1)” and “Fucα1-2Galβ1-3GalNAc (H type 3)” as sugar chain ligands for rBC2LCN were examined by frontal affinity chromatography (Non Patent Literature 8). The results are shown below (Table 1).

Assay [2] has as its target T2, rBC2LCN-ETA fusion protein, rBC2LCN-(GSGGG)2-ETA (Burkholderia cenocepacia rBC2LCN, SEQ ID NO: 1, fused through spacer GSGGG, SEQ ID NO: 3, to cell-killing domain of Pseudomonas aeruginosa exotoxin A, SEQ ID NO: 2) (Burkholderia cenocepacia, UniProt B4EH86).
T2 construct: E. coli
The assay can be described thus: Binding affinity of rBC2LCN-ETA fusion protein to sugar chain ligands by frontal affinity chromatography.
Description: as §1

In assay [3] the target is T3, rBC2LCN-ETA fusion protein, rBC2LCN-(GSGGG)2-ETA (Burkholderia cenocepacia rBC2LCN, SEQ ID NO: 1, fused through spacer GSGGG, SEQ ID NO: 3, to cell-killing doma (Burkholderia cenocepacia, UniProt B4EH86)).
T3 construct: E. coli
The assay is described as above. Further details: species or system Burkholderia cenocepacia / Pseudomonas aeruginosa.
Description: as §1

In general, Kd refers to the concentration at which binding is half-saturated. `CC(=O)N[C@H]1[C@H](Oc2ccc([N+](=O)[O-])cc2)O[C@H](CO)[C@@H](O)[C@@H]1O[C@@H]1O[C@H](CO)[C@H](O)[C@H](O)[C@H]1O[C@@H]1O[C@@H](C)[C@@H](O)[C@@H](O)[C@@H]1O` [H type1-pNP]: the Kd in assay [1] was 9.9 µM; in assay [2], 8.3 µM.
Take `CC(=O)N[C@H]1[C@@H](Oc2ccc([N+](=O)[O-])cc2)O[C@H](CO)[C@H](O)[C@@H]1O[C@@H]1O[C@H](CO)[C@H](O)[C@H](O)[C@H]1O[C@@H]1O[C@@H](C)[C@@H](O)[C@@H](O)[C@@H]1O` [H type3-pNP]: the dissociation constant (Kd) stood at 32.3 µM in assay [1] and 25.4 µM in assay [3].
For the compound `CC(=O)N[C@H]1[C@@H](Oc2ccc([N+](=O)[O-])cc2)O[C@H](CO)[C@H](O)[C@@H]1O[C@@H]1O[C@H](CO)[C@H](O)[C@H](O)[C@H]1O[C@@H]1O[C@@H](C)[C@@H](O)[C@@H](O)[C@@H]1O` [H type 3, Fucα1-2Galβ1-3GalNAc], the Kd in assay [1] turned out to be 25.4 µM; in assay [3], 32.3 µM.
